{"source": "paper PMC12610274", "about": "“Identification of Marrubiin as a Cathepsin C Inhibitor for Treating Rheumatoid Arthritis” (Molecules, 2025)", "key": {"NE [1]": {"system": "NE", "assay": "Stability (protein level) of NSPs in U937 cells, Western blot, NE", "format": "cell-based, human", "settings": "U937, 10 μM", "method": "The Western blot experiments in this study were performed as described below. Cells in the logarithmic growth phase were collected in appropriate numbers according to different experimental purposes. After being thoroughly washed with phosphate-buffered saline and centrifuged, the cell pellets were resuspended in phosphate-buffered saline to obtain single-cell suspensions. Cells were fully lysed using RIPA buffer (Beyotime, P0013B) supplemented with EDTA-free protease and phosphatase inhibitor (Abcam, ab201120). Total cellular protein solutions were obtained after centrifugation to remove cell debris. The isolated proteins were quantified using the BeyoBCA protein assay kit (Beyotime, P0399M) following the operational protocol. The quantified protein samples were thoroughly mixed with protein loading buffer, boiled on a dry bath for 5 min, and then cooled to room temperature for Western blot analysis. […] Finally, enhanced chemiluminescent horseradish peroxidase substrate (Tanon Science & Technology Co., Ltd., Shanghai, China, 180-506) was used to visualize protein bands on a ChemiDoc XRS system (Bio-Rad Laboratories, Inc., Hercules, CA, USA), and the protein bands were quantified using Image Lab analysis software (Version 6.1) (Bio-Rad). […]"}, "NE [2]": {"system": "NE", "assay": "NE activity in blood and bone marrow of mice", "format": "in vivo, C57BL/6 mice", "settings": "30 mg/kg daily gavage, 7 days", "method": "(§1) A total of 25 C57BL/6 mice (6–8 weeks old, weighing approximately 20 g, with equal numbers of males and females) were randomly divided into five groups. Mice in the compound-treated groups were orally administered the compound once daily at doses of 0.3, 3, and 30 mg/kg for 7 consecutive days. […] Mice in the normal group were given an equal volume of normal saline at the same time points. The body weight, death rate, and behavior were observed and recorded daily for one week. After 7 days, bone marrow and blood samples were collected from the mice and lysed using 8% Triton X-100 buffer. The lysates were stored at −20 °C until testing. The activity assays for CTSC and NSPs were performed as described above. The mice were anesthetized and the tissues were taken for H&E staining."}, "CTSB": {"target": "T1, CTSB (Homo sapiens, UniProt P07858)", "T1 construct": "purchased R&D Systems", "assay": "Human recombinant cathepsins isolated enzyme assay, CTSB", "format": "biochemical", "settings": "read-out: CTSB Enz (IC50: μM)", "source_text": "The protocol for evaluating the inhibitory potency of compounds against other cathepsins referred to the CTSC activity assay. Recombinant human CTSB, CTSL, CTSS and CTSK for testing were also purchased from R&D Systems Biotechnology Company. Recombinant human Cat G, NE, and PR3 For testing were purchased from MedChemExpress. A multi-functional microplate reader was used to measure the absorption of Z-Leu-Arg-AMC at excitation/emission wavelengths of 380/460 nm to assess the activity changes of CTSB and CTSL, while the absorption of MCA-Arg-Pro-Lys-Pro-Val-Glu-NVAL-Trp-Arg-Lys(DNP)-NH2 at 320/405 nm was measured to evaluate the activity changes of CTSS and CTSK. Different assay buffers were prepared for diluting samples and measuring the activities of specific NSPs: a buffer containing 50 mM Tris and 750 mM NaCl (pH 7.4) was used for NE and PR3; a buffer containing 50 mM Tris, 750 mM NaCl, 5 mM EDTA (pH 7.4) was used for Cat G; and a buffer containing 25 mM MES, 50 mM NaCl, 5 mM DTT (pH 6.0) was used for CTSC. Synthetic substrates were employed to assess the activities of NSPs and CTSC: H-Gly-Arg-AMC for CTSC, N-MeSuc-Ala-Ala-Pro-Val-pNA for NE, aminobenzoyl-Val-Ala-Asp-Cys-Ala-Asp-Gln-ethylenediamine 2,4-dinitrophenyl for PR3, and N-Suc-Ala-Ala-Pro-Phe-pNA for Cat G. Each group of tests was independently repeated at least 3 times, and IC50 values were calculated using SPSS 10.0."}, "CTSC": {"target": "T2, CTSC (Mus musculus, UniProt P97821)", "T2 construct": "from tissue; host or cells: mouse blood and bone marrow lysates", "T2 sequence (P97821 25-462)": "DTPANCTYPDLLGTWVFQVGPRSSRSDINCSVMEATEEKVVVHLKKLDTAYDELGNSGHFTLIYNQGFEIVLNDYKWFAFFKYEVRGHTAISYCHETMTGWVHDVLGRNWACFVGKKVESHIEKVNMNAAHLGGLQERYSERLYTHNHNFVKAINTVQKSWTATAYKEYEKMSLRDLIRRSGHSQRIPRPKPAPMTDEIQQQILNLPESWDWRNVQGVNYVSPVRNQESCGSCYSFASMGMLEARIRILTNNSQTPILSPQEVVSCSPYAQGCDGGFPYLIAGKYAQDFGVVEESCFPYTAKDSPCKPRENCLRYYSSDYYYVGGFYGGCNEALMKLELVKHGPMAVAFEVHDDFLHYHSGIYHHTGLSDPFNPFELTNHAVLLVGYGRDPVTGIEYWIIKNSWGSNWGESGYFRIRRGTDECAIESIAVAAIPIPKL", "assay": "CTSC activity in blood and bone marrow of mice", "format": "in vivo, C57BL/6 mice", "settings": "30 mg/kg daily gavage, 7 days", "method": "as §1"}}}
{"smiles": "C[C@@H]1C[C@H]2OC(=O)[C@@]3(C)CCC[C@@](C)([C@@H]23)[C@@]1(O)CCc1ccoc1", "note": "[Marrubiin, marrubiin]", "values": [{"measurement": "NE protein level, % of original level", "setting": "NE [1]; 96 h", "value": 15.7, "unit": "%"}, {"measurement": "NE protein level, % of original level", "setting": "NE [1]; 5 days", "value": 8.7, "unit": "%"}, {"measurement": "remaining activity rate of NE", "setting": "NE [2]; blood", "value": "~9.9", "unit": "%"}, {"measurement": "remaining activity rate of NE", "setting": "NE [2]; bone marrow", "value": "~20.9", "unit": "%"}, {"measurement": "IC50", "setting": "CTSB", "value": "9.8 ± 1.1", "unit": "µM"}, {"measurement": "remaining activity rate of CTSC", "setting": "CTSC; blood", "value": "~25.5", "unit": "%"}, {"measurement": "remaining activity rate of CTSC", "setting": "CTSC; bone marrow", "value": "approximately 15.5%"}]}
